Test results from the NIST ThermoML archive (doi:10.1016/j.jct.2018.07.014).
± gives the expanded uncertainty stated by the source.

Details: 101.33 kPa, Liquid, buoyancy

Row | mass density (298.2 K) [kg/m3] | mass density (323.2 K) [kg/m3] | Compound
1 | 806.37 ± 2.8 |  | CCCCC(C)=O [2-hexanone]
2 |  | 1009.2 ± 3.1 | Cc1cccc(O)c1 [3-methylphenol]
3 |  | 1011.3 ± 3.2 | Cc1ccc(O)cc1 [4-methylphenol]
4 | 881.51 ± 2.9 |  | CCCOC(C)=O [propyl ethanoate]

Row | Compound | mass density (298.2 K) [kg/m3] | mass density (323.2 K) [kg/m3]
5 | Cc1cc(C)cc(C)c1 [1,3,5-trimethylbenzene] | 859.7 ± 2.9 | 
6 | Cc1ccccc1O [2-methylphenol] |  | 1018.8 ± 3.2
